Data set [1] addresses T1, human adenosine A2A receptor (Homo sapiens, UniProt P29274).
T1 construct: expressed in transfected cells; host or cells: HEK-293
In words: Antagonizing effect on human adenosine A2A receptor (NECA-stimulated cAMP, TR-FRET, HEK-293 cells). The class given is cell-based. Particulars: inhibition of cAMP produced by NECA (3 nM), HEK-293 cells expressing human recombinant A2A receptor. The protocol:
The experimental system uses human recombinant adenosine A2A receptor, which is stably expressed in HEK-293 cell line. HEK-293 cells were inoculated into culture plate at a density of 1.25×10^5 cells/mL. The medium was changed by modified HBSS solution with pH 7.4, different concentrations of test compounds ([…], 1 μM, […], 10 nM, 1 nM, 0.1 nM) and solvents (PBS with 0.1% DMSO) were added, and the plate was incubated at 37° C. for 10 min. cAMP (cyclic adenosine monophosphate) concentration in culture medium was detected by TR-FRET method. NECA was used as a positive control in this experiment, (1) test compounds alone were used to stimulate cells to produce a certain amount of cAMP, and then NECA (0.1 μM) alone was used to stimulate cells to produce a certain amount of cAMP. A test compound is considered to have agonistic activity on adenosine A2A receptor if the test compound alone stimulates cells to produce cAMP more than 50% of the amount of cAMP produced by NECA (0.1 μM) alone. (2) All cells were first incubated with test compounds and then stimulated with NECA (3 nM). In addition, NECA (3 nM) alone was used to stimulate cells to produce a certain amount of cAMP. […] IC50 was calculated using MathIQ™ (ID Business Solutions Ltd., UK) through nonlinear, least squares regression equation analysis.
Background: Time-resolved FRET reads energy transfer from a long-lived donor to a nearby acceptor.

Data set [2] is described as follows: Pharmacokinetic evaluation in rats after intravenous or gavage administration. The class given is in vivo, SD rats. Particulars: for AUC(0-inf) / AUC(0-t) / Cmax / MRT inf / Tmax / clearance / half-life / Vd: SD, rat, plasma; for Vd: read-out: Vss; for F: gavage 5 mg/kg vs intravenous 1 mg/kg. As to the method:
(§1) The LC-MS/MS system for analysis includes the Agilent 1200 series vacuum degasser, a quaternary pump, an orifice plate sampler, a thermostatted column oven, and an API4000Qtrap triple quadrupole mass spectrometer with an electrospray ionization source (ESI).
Waters ACQUITY UPLC CSH C18, 2.1×50 mm, 1.7 μm column was used for analysis, and 0.8 μL of sample was injected. Analytical conditions: mobile phase was H2O+2 mM HCOONH4 (ammonium formate)+0.1% FA (formic acid) (mobile phase A) and MeOH (methanol)+2 mM HCOONH4 (ammonium formate)+0.1% FA (formic acid) (mobile phase B). Flow rate was 0.7 mL/min.
The experiment was divided into two groups: one was administered by intravenous injection, and the other was administered by intragastric administration. The compound of the present invention was administered to a test animal (overnight fast for 12 hours) in the form of 10% DMA (heating)+60% PEG400+30% saline solution. For the group of intravenous administration, the administration dose was 1 mg/kg, and vein blood samples (0.3 mL) were collected at the time points of 0.083, 0.25, 0.5, 1.0, 2.0, 5.0, 7.0 and 24 h after administration. EDTA-K2 as anticoagulant was added into the blood vessel. The plasma solutions were collected by centrifuging each blood sample at 3,000 rpm or 4,000 rpm for 10 minutes and kept at −20° C. or −70° C. For the group of intragastric administration, the administration dose was 5 mg/kg, and vein blood samples (0.3 mL) were collected at the time points of 0.25, 0.5, 1.0, 2.0, 5.0, 7.0 and 24 h after administration. EDTA-K2 as anticoagulant was added into the blood vessel. The plasma solutions were collected by centrifuging each blood sample at 3,000 rpm or 4,000 rpm for 10 minutes and kept at −20° C. or −70° C.
20 μL of plasma was taken, 120 μL of IS working solution was added to the plasma, and the plasma was vortexed for 2 min. The mixed solution was then centrifuged at 12,000 rpm for 2 min. 100 μL of the supernatant was taken, 110 μL of MeOH/H2O (v/v=1/1) was added, and the solution was vortexed for 2 minutes, then 5 μL was taken for injection into the LC-MS/MS system. LC-MS/MS method was used to detect the concentration of target compounds, and non-compartment model was used to calculate pharmacokinetic parameters.

A short description of data set [3]: Pharmacokinetic evaluation in beagles after intravenous or gavage administration. The format is in vivo. To be noted: for AUC(0-inf) / AUC(0-t) / Cmax / MRT inf / Tmax / clearance / half-life / Vd: beagle, dog, plasma; for Vd: read-out: Vss; for F: gavage 2.5 mg/kg vs intravenous 0.5 mg/kg. As to the method: The test animals are mice and/or dogs.
as §1
A waters xbridge C18 UPLC, 2.1×50 mm, […] column was used for analysis and 0.5 μL of sample was injected. Analytical conditions: mobile phase was H2O+2 mM HCOONH4 (ammonium formate)+0.1% FA (formic acid) (mobile phase A) and MeOH (methanol)+2 mM HCOONH4 (ammonium formate)+0.1% FA (formic acid) (mobile phase B). The flow rate was 0.7 mL/min.
The experiment was divided into two groups: one was administered by intravenous injection, and the other was administered by intragastric administration. The compound of the present invention was administered to test animals in the form of 10% DMA+60% PEG400+30% saline solution. […] Each blood sample was centrifuged at 3,000 rpm or 4,000 rpm for 10 minutes. The plasma solutions were collected and anticoagulant was EDTA-K2. The plasma solutions were then kept at −20° C. or −70° C. […]
10 μL of plasma was taken, 120 μL of IS working solution was added to the plasma, and the plasma was vortexed for 2 min. The mixed solution was then centrifuged at 12,000 rpm for 2 min. 80 μL of the supernatant was taken, 140 μL of MeOH/H2O (v/v=1/1) was added, and the solution was vortexed for 2 minutes, then 1.0 μL was taken for injection into the LC-MS/MS system. LC-MS/MS method was used to detect the concentration of target compounds, and non-compartment model was used to calculate pharmacokinetic parameters.

Where [4] appears, read: intravenous injection, 0.5 mg/kg.

For orientation: IC50 means the concentration at which inhibition is half-maximal. As a reminder, the AUC(0-inf) is total exposure, with the tail of the curve extrapolated. Low values mean less exposure, high ones more exposure. By AUC(0-t) is commonly meant exposure summed from dosing to a finite time, without extrapolation to infinity. Read a low AUC(0-t) as low exposure. In general, Cmax refers to the highest concentration seen after dosing. For orientation: MRT inf means a mean duration of stay, worked out from the concentration-time curve. As usually defined, the Tmax is the time at which the peak concentration occurs. Broadly, the half-life is the time needed for the level to fall by half in the phase considered. Low values mean rapid decline, high ones slow decline.

T1 sequence (P29274 whole entry): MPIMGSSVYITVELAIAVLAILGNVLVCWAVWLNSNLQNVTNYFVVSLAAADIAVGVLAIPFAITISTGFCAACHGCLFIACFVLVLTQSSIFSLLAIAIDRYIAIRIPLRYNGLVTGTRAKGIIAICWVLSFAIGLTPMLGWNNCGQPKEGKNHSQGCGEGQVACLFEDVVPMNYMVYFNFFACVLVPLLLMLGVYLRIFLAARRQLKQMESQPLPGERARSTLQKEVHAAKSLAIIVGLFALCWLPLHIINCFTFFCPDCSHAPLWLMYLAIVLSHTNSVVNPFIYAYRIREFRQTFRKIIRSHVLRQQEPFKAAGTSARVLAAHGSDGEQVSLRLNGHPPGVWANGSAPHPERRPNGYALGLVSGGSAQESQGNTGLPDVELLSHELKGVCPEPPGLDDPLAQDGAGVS

On to `CCN1CCC(Oc2ccc(/C=C/c3nc4c(c(=O)n(CC)c(=O)n4CC)n3C)cc2)CC1` [Example 3, (E)-1,3-diethyl-7-methyl-8-(4-((1-ethylpiperidin-4-yl)oxy)styryl)-1H-purine-2,6(3H,7H)-dione], for which the IC50 in data set [1] was found to be 1480 nM.

As to `CCn1c(=O)c2c(nc(/C=C/c3ccc(OC4CCN(S(C)(=O)=O)CC4)cc3)n2C)n(CC)c1=O` [Example 8, (E)-1,3-diethyl-7-methyl-8-(4-((1-(methylsulfonyl)piperidin-4-yl)oxy)styryl)-1H-purine-2,6(3H, 7H)-dione], the IC50 in data set [1] is 750 nM. In data set [2] (intravenous injection, 1 mg/kg), this compound had an AUC(0-inf) of 1830 ng·h/mL, an AUC(0-t) of 1810 ng·h/mL, a Cmax of 817 ng/mL and an MRT inf of 3.1 h. In addition, in data set [2] (intravenous injection, 1 mg/kg), the Tmax was determined as 0.083 h, the clearance was 9.1 mL/min/kg, the half-life was 4.64 h and the Vd came to 1.69 L/kg. In data set [2] (po, gavage, 5 mg/kg), this compound showed an AUC(0-inf) of 11900 ng·h/mL, an exposure AUC(0-t) of 11900 ng·h/mL, a Cmax of 2030 ng/mL and an MRT inf of 4.07 h. In data set [2] (po, gavage, 5 mg/kg), the Tmax came out at 1.67 h and the half-life was 2.8 h. The compound further came in with a F in data set [2] of 131.5%. In data set [3] (setting [4]), this compound had an AUC(0-inf) of 6310 ng·h/mL, an AUC(0-t) of 4990 ng·h/mL, a Cmax of 775 ng/mL and an MRT inf of 14.4 h. Moreover, in data set [3] (setting [4]), the Tmax is 0.083 h, the clearance was 1.32 mL/min/kg, the half-life is 9.43 h and the Vd was found to be 1.14 L/kg. Moreover, in data set [3] (po, gavage, 2.5 mg/kg), the AUC(0-inf) worked out at 31800 ng·h/mL, the AUC(0-t) was 22700 ng·h/mL, the Cmax stood at 1720 ng/mL and the MRT inf came to 18.1 h. Besides, in data set [3] (po, gavage, 2.5 mg/kg), the Tmax was 0.667 h and the half-life is 11.5 h. The compound further returned a F in data set [3] of 91.1%.

With `CCn1c(=O)c2c(nc(/C=C/c3ccc(OC4CCNCC4)cc3)n2C)n(CC)c1=O` [Example 1, (E)-1,3-diethyl-7-methyl-8-(4-(piperidin-4-yloxy)styryl)-1H-purine-2,6(3H,7H)-dione], in data set [1], the half-maximal inhibitory concentration (IC50) was determined as 550 nM.

For `CCn1c(=O)c2c(nc(/C=C/c3ccc(OC4CCN(C(C)=O)CC4)cc3)n2C)n(CC)c1=O` [Example 6, (E)-8-(4-((1-acetylpiperidin-4-yl)oxy)styryl)-1,3-diethyl-7-methyl-1H-purine-2,6 (3H,7H)-dione], the IC50 in data set [1] was 350 nM. In data set [2] (intravenous injection, 1 mg/kg), the AUC(0-inf) stood at 6290 ng·h/mL, the AUC(0-t) was 6230 ng·h/mL, the concentration peaked (Cmax) at 1610 ng/mL and the mean residence time MRT inf amounted to 4.37 h. Also, in data set [2] (intravenous injection, 1 mg/kg), the Tmax came to 0.083 h, the clearance turned out to be 2.65 mL/min/kg, the half-life was 3.82 h and the Vd was 0.696 L/kg. Moreover, in data set [2] (po, gavage, 5 mg/kg), the total exposure AUC(0-inf) stood at 40400 ng·h/mL, the AUC(0-t) was determined as 36900 ng·h/mL, the highest level (Cmax) was 2930 ng/mL and the MRT inf turned out to be 9.22 h. Moreover, in data set [2] (po, gavage, 5 mg/kg), the Tmax was 1.5 h and the half-life was 6.96 h. Also, in data set [2], the F amounted to 118.4%. Besides, in data set [3] (setting [4]), the AUC(0-inf) came to 6110 ng·h/mL, the AUC(0-t) is 5830 ng·h/mL, the Cmax was found to be 634 ng/mL and the MRT inf is 7.37 h. Besides, in data set [3] (setting [4]), the time to peak (Tmax) came out at 0.25 h, the clearance was found to be 1.36 mL/min/kg, the half-life is 5.81 h and the Vd stood at 0.604 L/kg. Besides, in data set [3] (po, gavage, 2.5 mg/kg), the AUC(0-inf) turned out to be 56500 ng·h/mL, the AUC(0-t) came to 47200 ng·h/mL, the concentration peaked (Cmax) at 3320 ng/mL and the MRT inf was 12.5 h. In data set [3] (po, gavage, 2.5 mg/kg), the Tmax was found to be 2.67 h and the half-life is 9.11 h. Besides, the F in data set [3] is on record as 170.5%.
